For this assay, the target named is T1, IGF-1R (Homo sapiens, UniProt P08069).
T1 construct: expressed in transfected cells
T1 sequence (P08069 31-1367): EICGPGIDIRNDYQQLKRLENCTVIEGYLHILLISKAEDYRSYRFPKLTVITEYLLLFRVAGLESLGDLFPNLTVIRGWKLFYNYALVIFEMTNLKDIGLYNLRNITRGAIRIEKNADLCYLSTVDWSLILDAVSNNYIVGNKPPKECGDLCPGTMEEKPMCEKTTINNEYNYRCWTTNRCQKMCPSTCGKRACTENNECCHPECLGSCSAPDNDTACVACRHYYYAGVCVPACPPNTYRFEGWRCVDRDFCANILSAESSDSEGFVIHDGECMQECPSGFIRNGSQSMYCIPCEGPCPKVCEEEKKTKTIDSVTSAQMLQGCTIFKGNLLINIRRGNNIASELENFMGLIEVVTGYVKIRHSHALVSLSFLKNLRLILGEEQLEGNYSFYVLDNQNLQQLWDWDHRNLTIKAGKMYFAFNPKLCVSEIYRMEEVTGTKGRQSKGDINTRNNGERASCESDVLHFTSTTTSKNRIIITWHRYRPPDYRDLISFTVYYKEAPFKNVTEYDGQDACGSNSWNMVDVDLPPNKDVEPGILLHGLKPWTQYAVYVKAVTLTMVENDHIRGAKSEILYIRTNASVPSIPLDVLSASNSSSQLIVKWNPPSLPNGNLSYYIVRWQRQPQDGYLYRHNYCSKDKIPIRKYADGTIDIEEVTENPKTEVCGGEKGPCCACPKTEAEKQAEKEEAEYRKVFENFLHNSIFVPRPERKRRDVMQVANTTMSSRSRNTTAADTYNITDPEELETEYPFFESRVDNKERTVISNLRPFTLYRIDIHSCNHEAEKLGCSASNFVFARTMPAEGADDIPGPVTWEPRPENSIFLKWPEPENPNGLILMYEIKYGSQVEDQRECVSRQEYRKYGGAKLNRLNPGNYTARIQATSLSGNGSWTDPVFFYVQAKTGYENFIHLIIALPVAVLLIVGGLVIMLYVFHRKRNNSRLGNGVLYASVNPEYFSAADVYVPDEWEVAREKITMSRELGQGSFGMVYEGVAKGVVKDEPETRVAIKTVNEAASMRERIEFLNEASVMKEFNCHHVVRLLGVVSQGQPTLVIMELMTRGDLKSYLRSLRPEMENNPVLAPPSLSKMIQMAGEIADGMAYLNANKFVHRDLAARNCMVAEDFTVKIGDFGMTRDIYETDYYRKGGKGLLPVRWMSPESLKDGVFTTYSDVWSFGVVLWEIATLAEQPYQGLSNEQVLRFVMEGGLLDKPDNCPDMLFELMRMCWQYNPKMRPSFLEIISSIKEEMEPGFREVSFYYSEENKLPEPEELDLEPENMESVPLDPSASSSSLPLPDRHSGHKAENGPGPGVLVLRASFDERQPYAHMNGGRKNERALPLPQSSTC
The assay can be described thus: Example B-2: IGF-1R Assay (PathHunter cell lines, EC80 agonist challenge, chemiluminescent detection). Type of assay: cell-based. Conditions: PathHunter cells, compound 60 minutes at 37° C., EC80 agonist 3 hours; read-out: IC50, Biological Activity against IGF-1R (Table B2). How it is done: PathHunter cell lines were expanded from freezer stocks according to standard procedures. Cells were seeded in a total volume of 20 μL into white walled, 384-well microplates and incubated for the appropriate time prior to testing.
Cells are pre-incubated with compound followed by EC80 agonist challenge as follows: • R. 1. Intermediate dilution of sample stocks was performed to generate 5× sample in assay buffer. • 2. 5 μL of 5× sample was added to cells and incubated at 37° C. for 60 minutes. Vehicle concentration was 1%. • 3. 5 IL of 6× EC80 agonist in assay buffer was added to the cells and incubated at room temperature for 3 hours.
Assay signal was generated through a single addition of 12.5 or 15 μL (50% v/v) of PathHunter Detection reagent cocktail for agonist and antagonist assays respectively, followed by a one hour incubation at room temperature. Microplates were read following signal generation with a PerkinElmer Envision™ instrument for chemilumine-scent signal detection.
Compound activity was analyzed using CBIS data analysis suite (ChemInnovation, CA). Percentage inhibition was calculated using the following formula: % Inhibition=100%×(1−(mean RLU of test sample−mean RLU of vehicle control)/(mean RLU of EC80 control−mean RLU of vehicle control)). The activity for representative examples of the invention is shown in the following table, wherein A: IC50≤500 nM; B: 500 nM<IC50≤2 μM; C: 2 μM<IC50≤10 μM; D: IC50>10 μM.
As for `CC1(C)C(=O)N(c2ccc3c(c2)N(S(C)(=O)=O)CC32CC2)C(=O)N1Cc1ccnc(NC2CCOCC2)c1` [Compound 212, 5,5-dimethyl-3-(1′-(methylsulfonyl)spiro[cyclopropane-1,3′-indolin]-6′-yl)-1-((2-((tetrahydro-2H-pyran-4-yl)amino)pyridin-4-yl)methyl)imidazolidine-2,4-dione], the IC50 was at most 500 nM.

For the molecule `COC[C@@H](C)Nc1cc(CN2C(=O)N(c3ccc4c(c3)N(S(C)(=O)=O)CC43CCC3)C(=O)C2(C)C)ccn1` [Compound 205, (R)-1-((2-((1-methoxypropan-2-yl)amino)pyridin-4-yl)methyl)-5,5-dimethyl-3-(1′-(methylsulfonyl)spiro[cyclobutane-1,3′-indolin]-6′-yl)imidazolidine-2,4-dione], the IC50 is at most 500 nM.

In the case of `Cn1nc(C(C)(C)C)cc1N1C(=O)N(Cc2ccnc(NC3CCOCC3)c2)C(C)(C)C1=O` [Compound 260, 3-(3-(tert-butyl)-1-methyl-1H-pyrazol-5-yl)-5,5-dimethyl-1-((2-((tetrahydro-2H-pyran-4-yl)amino)pyridin-4-yl)methyl)imidazolidine-2,4-dione], the IC50 lay in the range of 2000 to 10000 nM.

Turning to `CN1CC(Nc2cc(CN3C(=O)N(c4ccc(S(=O)(=O)C(F)(F)F)cc4)C(=O)C3(C)C)ccn2)CCC1=O` (stereo not drawn) [Compound 330, 5,5-dimethyl-1-((2-((1-methyl-6-oxopiperidin-3-yl)amino)pyridin-4-yl)methyl)-3-(4-((trifluoromethyl)sulfonyl)phenyl) imidazolidine-2,4-dione], the IC50 was in the range of 500 to 2000 nM.

With `CC1(C)C(=O)N(c2ccc(C3(C(F)(F)F)CC3)cc2)C(=O)N1Cc1ccnc(NCc2ncc[nH]2)c1` [Compound 173, 1-((2-(((1H-imidazol-2-yl)methyl)amino)pyridin-4-yl)methyl)-5,5-dimethyl-3-(4-(1-(trifluoromethyl)cyclopropyl)phenyl) imidazolidine-2,4-dione], the IC50 is at most 500 nM.

Turning to `CC1(C)C(=O)N(c2ccc3c(c2)N(C(=O)C2CC2)CC32CC2)C(=O)N1Cc1ccnc(N[C@H]2[C@@H]3COC[C@@H]32)c1` [Compound 231, 1-((2-((1R,5S,6r)-3-oxabicyclo[3.1.0]hexan-6-ylamino)pyridin-4-yl)methyl)-3-(1′-(cyclopropanecarbonyl)spiro[cyclopropane-1,3′-indolin]-6′-yl)-5,5-dimethylimidazolidine-2,4-dione], the IC50 is at most 500 nM.

In the case of `COC[C@@H](C)Nc1cc(CN2C(=O)N(c3ccc4c(c3)N(S(C)(=O)=O)CC4(C)C)C(=O)C2(C)C)ccn1` [Compound 203, (R)-3-(3,3-dimethyl-1-(methylsulfonyl)indolin-6-yl)-1-((2-((1-methoxypropan-2-yl)amino)pyridin-4-yl)methyl)-5,5-dimethylimidazolidine-2,4-dione], the IC50 was at most 500 nM.

Turning to `CC1(C)C(=O)N(c2ccc(C3(C(F)(F)F)CC3)cc2)C(=O)N1Cc1ccnc2c1CCC(=O)N2` [Compound 38, 5,5-dimethyl-1-((7-oxo-5,6,7,8-tetrahydro-1,8-naphthyridin-4-yl)methyl)-3-(4-(1-(trifluoromethyl)cyclopropyl)phenyl) imidazolidine-2,4-dione], the IC50 was at most 500 nM.

In the case of `CC(C)Cc1cn(S(C)(=O)=O)c2cc(N3C(=O)N(Cc4ccnc5c4CC(=O)N5)C(C)(C)C3=O)ccc12` [Compound 50, 3-(3-isobutyl-1-(methylsulfonyl)-1H-indol-6-yl)-5,5-dimethyl-1-((2-oxo-2,3-dihydro-1H-pyrrolo[2,3-b]pyridin-4-yl)methyl)imidazolidine-2,4-dione], the IC50 was at most 500 nM.

As to `CC1(C)CN(S(=O)(=O)C2CC2)c2cc(N3C(=O)N(Cc4ccnc(NC5CCOCC5)c4)C(C)(C)C3=O)ccc21` [Compound 248, 3-(1-(cyclopropylsulfonyl)-3,3-dimethylindolin-6-yl)-5,5-dimethyl-1-((2-((tetrahydro-2H-pyran-4-yl)amino)pyridin-4-yl)methyl)imidazolidine-2,4-dione], the IC50 is at most 500 nM.

With `C[C@H]1COc2c(CN3C(=O)N(c4ccc(C5(C(F)(F)F)CC5)cc4)C(=O)C3(C)C)ccnc2N1` [Compound 26, (S)-5,5-dimethyl-1-((3-methyl-3,4-dihydro-2H-pyrido[3,2-b][1,4]oxazin-8-yl)methyl)-3-(4-(1-(trifluoromethyl)cyclopropyl)phenyl) imidazolidine-2,4-dione], the IC50 is at most 500 nM.

For `CC1(C)C(=O)N(c2ccc3c(c2)N(S(C)(=O)=O)CC32CC2(C)C)C(=O)N1Cc1ccnc(N[C@H]2[C@@H]3COC[C@@H]32)c1` (stereo partly drawn) [Compound 164, 1-((2-(((1R,5S,6r)-3-oxabicyclo[3.1.0]hexan-6-yl)amino)pyridin-4-yl)methyl)-3-(2,2-dimethyl-1′-(methylsulfonyl)spiro[cyclopropane-1,3′-indolin]-6′-yl)-5,5-dimethylimidazolidine-2,4-dione], the IC50 was at most 500 nM.

Regarding `CC1Cc2c(CN3C(=O)N(c4ccc(C5(C(F)(F)F)CC5)cc4)C(=O)C3(C)C)ccnc2N1` (stereo not drawn) [Compound 34, 5,5-dimethyl-1-((2-methyl-2,3-dihydro-1H-pyrrolo[2,3-b]pyridin-4-yl)methyl)-3-(4-(1-(trifluoromethyl)cyclopropyl)phenyl) imidazolidine-2,4-dione], the IC50 was at most 500 nM.

Consider `CC1(C)C(=O)N(c2ccc3c(c2)N(S(C)(=O)=O)CC32CCC2)C(=O)N1Cc1ccnc(N[C@H]2CCOC2)c1` [Compound 204, (S)-5,5-dimethyl-3-(1′-(methylsulfonyl)spiro[cyclobutane-1,3′-indolin]-6′-yl)-1-((2-((tetrahydrofuran-3-yl)amino)pyridin-4-yl)methyl)imidazolidine-2,4-dione], for which the IC50 was at most 500 nM.

For `CC1(C)C(=O)N(c2ccc(C3(C#N)CC34CC4)cc2)C(=O)N1Cc1ccnc2c1CC(=O)N2` (stereo not drawn) [Compound 69, 1-(4-(4,4-dimethyl-2,5-dioxo-3-((2-oxo-2,3-dihydro-1H-pyrrolo[2,3-b]pyridin-4-yl)methyl)imidazolidin-1-yl)phenyl)spiro[2.2]pentane-1-carbonitrile], the 50% inhibitory concentration (IC50) was at most 500 nM.

Consider `CC1(C)C(=O)N(c2ccc(OC(F)(F)F)c(N3CCOCC3)c2)C(=O)N1Cc1ccnc2c1CC(=O)N2` [Compound 74, 5,5-dimethyl-3-(3-morpholino-4-(trifluoromethoxy)phenyl)-1-((2-oxo-2,3-dihydro-1H-pyrrolo[2,3-b]pyridin-4-yl)methyl)imidazolidine-2,4-dione], for which the IC50 is at most 500 nM.

Regarding `CC1(C)C(=O)N(c2ccc(C(F)(F)F)c(C#N)c2)C(=O)N1Cc1ccnc2c1CC(=O)N2` [Compound 66, 5-(4,4-dimethyl-2,5-dioxo-3-((2-oxo-2,3-dihydro-1H-pyrrolo[2,3-b]pyridin-4-yl)methyl)imidazolidin-1-yl)-2-(trifluoromethyl)benzonitrile], the half-maximal inhibitory concentration (IC50) is above 10000 nM.

On to `CC(C)Nc1cc(CN2C(=O)N(c3ccc4c(c3)N(S(C)(=O)=O)CC43CC3)C(=O)C2(C)C)ccn1` [Compound 200, 1-((2-(isopropylamino)pyridin-4-yl)methyl)-5,5-dimethyl-3-(1′-(methylsulfonyl)spiro[cyclopropane-1,3′-indolin]-6′-yl)imidazolidine-2,4-dione], for which the half-maximal inhibitory concentration (IC50) is at most 500 nM.

In general, IC50 refers to the concentration at which inhibition is half-maximal.
